In test [1] the test system is RS4;11 cells. In words: RS4;11 cell proliferation assay (CellTiter-Glo). Format: cell-based. The conditions noted are these: Homo sapiens, RS4-11, 48 h, read-out: RS4;11 (nM), CTG IC50. As to the method:
Cell proliferation was measured using the CellTiter-Glo® Luminescent Cell Viability Assay. The assay involved the addition of a single reagent (CellTiter-Glo® Reagent) directly to cells cultured in serum-supplemented medium.
Each compound evaluated was prepared as a DMSO stock solution (10 mM). Compounds were tested in duplicate on each plate, with a 10-point serial dilution curve (1:3 dilution). Compound treatment (1.0 μL) was added from the compound dilution plate to the cell plate. The highest compound concentration was 10 μM (final), with a 0.1% final DMSO concentration. Plates were then incubated at 37° C., 5% CO2. After 48 h of compound treatment for RS4;11 or 72 h for NCI-H1963, cell plates were equilibrated at rt for approximately 30 mins. An equi-volume amount of CellTiter-Glo® Reagent (40 μL) was added to each well. […] Luminescence was recorded using a Envision plate reader according to CellTiter-Glo protocol. IC50 of each compound was calculated using GraphPad Prism by nonlinear regression analysis.

The target in test [2] is Bcl-2 (Homo sapiens (Human), UniProt P10415). The test can be described thus: Bcl-2 protein family binding assay (Bcl2scan platform), Bcl-2. Particulars: BIM peptide ligand, 11-point dilution, read-out: Bc1-2 Kd (nm). As to the method:
(§1) E. coli were grown to log-phase and infected with T7 phage from a frozen stock (multiplicity of infection=0.4) and incubated with shaking at 32° C. until lysis (90-150 minutes). The lysates were centrifuged (5,000×g) and filtered (0.2 μm) to remove cell debris. […] The liganded beads were blocked with excess biotin and washed with blocking buffer (SeaBlock (Pierce), 1% BSA, 0.05% Tween 20, 1 mM DTT) to remove unbound ligand and to reduce non-specific phage binding. […] Test compounds were prepared as 100× stocks in 100% DMSO. Kds were determined using an 11-point 3-fold compound dilution series with one DMSO control point. […] The compounds were then diluted directly into the assays such that the final concentration of DMSO was 0.9%. All reactions performed in polypropylene 384-well plates. Each was a final volume of 0.02 ml. […] The BCL2 concentration in the eluates was measured by qPCR. Binding constants (Kds) were calculated with a standard dose-response curve using the Hill equation:
(§2) [formula] The Hill Slope was set to −1. Curves were fitted using a non-linear least square fit with the Levenberg-Marquardt algorithm.

For test [3], the target named is Bcl-XL (Homo sapiens (Human), UniProt Q07817). The test can be described thus: Bcl-2 protein family binding assay (Bcl2scan platform), Bcl-XL. The conditions noted are these: BIM peptide ligand, 11-point dilution, read-out: Bc1-XL Kd (nm). As to the method:
as §1, §2

Our source for the IC50 and Kd values is patent US11318134B2, “Benzamide compounds” (priority 2018, dated 2022).

One may read the Kd as the concentration at which binding is half-saturated.

Sequence of Bcl-XL (Q07817 whole entry): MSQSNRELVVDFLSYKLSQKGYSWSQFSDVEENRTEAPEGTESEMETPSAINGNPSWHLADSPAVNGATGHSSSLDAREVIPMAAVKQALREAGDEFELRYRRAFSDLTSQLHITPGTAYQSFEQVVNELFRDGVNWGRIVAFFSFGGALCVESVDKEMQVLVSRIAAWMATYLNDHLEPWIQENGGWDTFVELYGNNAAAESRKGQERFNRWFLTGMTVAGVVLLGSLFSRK
Sequence of Bcl-2 (P10415 whole entry): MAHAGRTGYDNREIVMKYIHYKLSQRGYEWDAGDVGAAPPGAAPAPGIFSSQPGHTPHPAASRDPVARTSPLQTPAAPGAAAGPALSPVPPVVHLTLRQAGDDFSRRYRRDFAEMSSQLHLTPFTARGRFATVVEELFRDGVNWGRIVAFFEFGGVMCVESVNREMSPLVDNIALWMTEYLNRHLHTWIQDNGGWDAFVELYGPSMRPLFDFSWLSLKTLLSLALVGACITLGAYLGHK

For the compound `CCC12CC(C3=C(CN4CCN(c5ccc(C(=O)NS(=O)(=O)c6ccc(NCC7(F)CCOCC7)c([N+](=O)[O-])c6)c(Oc6cnc7[nH]ccc7c6)c5)CC4)CCC(C)(C)C3)(C1)C2` [Example 25, 2-((1H-pyrrolo[2,3-b]pyridin-5-yl)oxy)-4-(4-((2-(3-ethylbicyclo[1.1.1]pentan-1-yl)-4,4-dimethylcyclohex-1-en-1-yl)methyl)piperazin-1-yl)-N-((4-(((4-fluorotetrahydro-2H-pyran-4-yl)methyl)amino)-3-nitrophenyl)sulfonyl)benzamide], in test [1], the IC50 was less than 100 nM. Moreover, the values for the Kd in test [2] and in test [3] were less than 10 nM and greater than 100 nM, respectively.
The corresponding values for `CCC12CC(C3=C(CN4CCN(c5ccc(C(=O)NS(=O)(=O)c6ccc(OCC7(F)CCOCC7)c([N+](=O)[O-])c6)c(Oc6cnc7[nH]ccc7c6)c5)CC4)CCC(C)(C)C3)(C1)C2` [Example 26, 2-((1H-pyrrolo[2,3-b]pyridin-5-yl)oxy)-4-(4-((2-(3-ethylbicyclo[1.1.1]pentan-1-yl)-4,4-dimethylcyclohex-1-en-1-yl)methyl)piperazin-1-yl)-N-((4-((4-fluorotetrahydro-2H-pyran-4-yl)methoxy)-3-nitrophenyl)sulfonyl)benzamide] are less than 100 nM, less than 10 nM and greater than 100 nM.
The corresponding values for `CC1(C)CCC(CN2CCN(c3ccc(C(=O)NS(=O)(=O)c4ccc(NCC5CCOCC5)c([N+](=O)[O-])c4)c(Oc4cnc5[nH]ccc5c4)c3)CC2)=C(C23CC(C(F)F)(C2)C3)C1` [Example 33, 2-((1H-pyrrolo[2,3-b]pyridin-5-yl)oxy)-4-(4-((2-(3-(difluoromethyl)bicyclo[1.1.1]pentan-1-yl)-4,4-dimethylcyclohex-1-en-1-yl)methyl)piperazin-1-yl)-N-((3-nitro-4-(((tetrahydro-2H-pyran-4-yl)methyl)amino)phenyl)sulfonyl)benzamide] are less than 100 nM, less than 10 nM and greater than 100 nM.
Turning to `CC1(C)CCC(CN2CCN(c3ccc(C(=O)NS(=O)(=O)c4ccc(NCC5CCOCC5)c([N+](=O)[O-])c4)c(Oc4cnc5[nH]ccc5c4)c3)CC2)=C(C23CC(C)(C2)C3)C1` [Example 9, 2-(1H-pyrrolo[2,3-b]pyridin-5-yloxy)-4-(4-((4,4-dimethyl-2-(3-methylbicyclo[1.1.1]pentan-1-yl)cyclohex-1-enyl)methyl)piperazin-1-yl)-N-(3-nitro-4-((tetrahydro-2H-pyran-4-yl)methylamino)phenylsulfonyl)benzamide], in test [1], the IC50 was less than 100 nM. Also, the Kd in test [2] is less than 10 nM; in test [3], greater than 100 nM.
The corresponding values for `CC1(C)CCC(CN2CCN(c3ccc(C(=O)NS(=O)(=O)c4ccc(NC[C@H]5CC[C@](C)(O)CC5)c([N+](=O)[O-])c4)c(Oc4cnc5[nH]ccc5c4)c3)CC2)=C(C23CC(C(F)(F)F)(C2)C3)C1` [Example 32, 2-((1H-pyrrolo[2,3-b]pyridin-5-yl)oxy)-4-(4-((4,4-dimethyl-2-(3-(trifluoromethyl)bicyclo[1.1.1]pentan-1-yl)cyclohex-1-en-1-yl)methyl)piperazin-1-yl)-N-((4-((((1r,4r)-4-hydroxy-4-methylcyclohexyl)methyl)amino)-3-nitrophenyl)sulfonyl)benzamide] are less than 100 nM, less than 10 nM and greater than 100 nM.
The corresponding values for `CC1(C)CCC(CN2CCN(c3ccc(C(=O)NS(=O)(=O)c4ccc(NCC5(F)CCOCC5)c([N+](=O)[O-])c4)c(Oc4cnc5[nH]ccc5c4)c3)CC2)=C(C23CC(C(F)F)(C2)C3)C1` [Example 35, 2-((1H-pyrrolo[2,3-b]pyridin-5-yl)oxy)-4-(4-((2-(3-(difluoromethyl)bicyclo[1.1.1]pentan-1-yl)-4,4-dimethylcyclohex-1-en-1-yl)methyl)piperazin-1-yl)-N-((4-(((4-fluorotetrahydro-2H-pyran-4-yl)methyl)amino)-3-nitrophenyl)sulfonyl)benzamide] are less than 100 nM, less than 10 nM and greater than 100 nM.
The corresponding values for `CC1(C)CCC(CN2CCN(c3ccc(C(=O)NS(=O)(=O)c4ccc(NCC5CCOCC5)c([N+](=O)[O-])c4)c(Oc4cnc5[nH]ccc5c4)c3)CC2)=C(C23CC(C(C)(F)F)(C2)C3)C1` [Example 40, 2-(1H-pyrrolo[2,3-b]pyridin-5-yloxy)-4-(4-((2-(3-(1,1-difluoroethyl)bicyclo[1.1.1]pentan-1-yl)-4,4-dimethylcyclohex-1-enyl)methyl)piperazin-1-yl)-N-(3-nitro-4-((tetrahydro-2H-pyran-4-yl)methylamino)phenylsulfonyl)benzamide] are less than 100 nM, less than 10 nM and greater than 100 nM.
For the compound `CN1CCOC(CNc2ccc(S(=O)(=O)NC(=O)c3ccc(N4CCN(CC5=C(C67CC(C)(C6)C7)CC(C)(C)CC5)CC4)cc3Oc3cnc4[nH]ccc4c3)cc2[N+](=O)[O-])C1` (centres unmarked) [Example 17, 2-((1H-pyrrolo[2,3-b]pyridin-5-yl)oxy)-4-(4-((4,4-dimethyl-2-(3-methylbicyclo[1.1.1]pentan-1-yl)cyclohex-1-en-1-yl)methyl)piperazin-1-yl)-N-((4-(((4-methylmorpholin-2-yl)methyl)amino)-3-nitrophenyl)sulfonyl)benzamide], in test [1], the IC50 was less than 100 nM. Further, the Kd in test [2] was less than 10 nM; in test [3], 10 to 100 nM.
The corresponding values for `CC1(C)CCC(CN2CCN(c3ccc(C(=O)NS(=O)(=O)c4ccc(NCC5CC6(CCOCC6)C5)c([N+](=O)[O-])c4)c(Oc4cnc5[nH]ccc5c4)c3)CC2)=C(C23CC(C)(C2)C3)C1` [Example 11, 2-((1H-pyrrolo[2,3-b]pyridin-5-yl)oxy)-N-((4-(((7-oxaspiro[3.5]nonan-2-yl)methyl)amino)-3-nitrophenyl)sulfonyl)-4-(4-((4,4-dimethyl-2-(3-methylbicyclo[1.1.1]pentan-1-yl)cyclohex-1-en-1-yl)methyl)piperazin-1-yl)benzamide] are less than 100 nM, less than 10 nM and greater than 100 nM.
For `CN1CCO[C@H](CNc2ccc(S(=O)(=O)NC(=O)c3ccc(N4CCN(CC5=C(C67CC(C)(C6)C7)CC(C)(C)CC5)CC4)cc3Oc3cnc4[nH]ccc4c3)cc2[N+](=O)[O-])C1` [Example 18, (R)-2-((1H-pyrrolo[2,3-b]pyridin-5-yl)oxy)-4-(4-((4,4-dimethyl-2-(3-methylbicyclo[1.1.1]pentan-1-yl)cyclohex-1-en-1-yl)methyl)piperazin-1-yl)-N-((4-(((4-methylmorpholin-2-yl)methyl)amino)-3-nitrophenyl)sulfonyl)benzamide], the IC50 in test [1] was less than 100 nM.
On the same count and under the same terms, as for `CN1CCO[C@@H](CNc2ccc(S(=O)(=O)NC(=O)c3ccc(N4CCN(CC5=C(C67CC(C)(C6)C7)CC(C)(C)CC5)CC4)cc3Oc3cnc4[nH]ccc4c3)cc2[N+](=O)[O-])C1` [Example 19, (S)-2-((1H-pyrrolo[2,3-b]pyridin-5-yl)oxy)-4-(4-((4,4-dimethyl-2-(3-methylbicyclo[1.1.1]pentan-1-yl)cyclohex-1-en-1-yl)methyl)piperazin-1-yl)-N-((4-(((4-methylmorpholin-2-yl)methyl)amino)-3-nitrophenyl)sulfonyl)benzamide], the figure is less than 100 nM.
